This is an account of results in the Bradley open melting point set (2014).

Several values for one entry are separate records, joined by “and”; a condition that tells them apart may be missing. Equal entries are not always repeated.

In general, melting point refers to the temperature, or range, at which the solid turns liquid. Molecule `Nc1ccc(Cl)cc1[N+](=O)[O-]` [4-chloro-2-nitroaniline] had a melting point of 116 °C.

Regarding `Cc1ccc(Sc2ccccc2NS(=O)(=O)c2ccc(C)cc2)cc1`, the melting point came out at 83.8 °C. In the case of `CCOCC` [diethyl ether] it was -116 °C; in that of `CN(C)C=O` [Dimethylformamide], -60.4 °C; in that of `Clc1ccc2c(Cl)ccnc2c1` [4,7-dichloroquinoline], 85 °C. In the case of `O=C(O)CC1Cc2ccccc2C1` [2-indanylacetic acid] it was 92 °C; in that of `O=C=N/c1cccc(N=C=O)c1C` [1,3-Diisocyanato-2-methylbenzene], 20 °C; in that of `Cc1cc(C)cc(C)c1` [mesitylene], -45 °C. For `CCOC(=O)c1ccc(N)cc1` [ethyl 4-aminobenzoate] the value was 89 °C; for `Clc1ncc[nH]1` [2-chloroimidazole], 166 °C; for `O=S(Br)Br` [thionyl bromide], -52 °C. Regarding `Brc1cc(Br)c(Br)cc1Br` [1,2,4,5-Tetrabromobenzene], the melting point amounted to 182 °C. In the case of `Cc1ccc(C(N)=O)cc1` [p-toluamide] it was 163 °C. `CC1=CC(C)=NC2N=NC(N)=C12` (stereo unspecified) [4,6-Dimethyl-2H-pyrazolo[3,4-b]pyridin-3-amine] showed a melting point of 280 °C.

On to `COC(=O)c1ccccc1C(N)=O` [phthalic_acid,_methylester_amide], for which the melting point was found to be 100 °C. `Cc1c(C)n(C(N)=O)c2ccccc12` [2,3-dimethyl-1H-indole-1-carboxamide] had a melting point of 188 °C. In turn, `CCCCCCC(C)C` [2-Methyloctane] returned a melting point of -80 °C. In the case of `O=[N+]([O-])c1ccc(CO)cc1` [4-nitrobenzyl alcohol] it was 94 °C; in that of `COc1ccc(B(O)O)c(Cl)c1` [2-chloro-4-methoxybenzeneboronic acid], 202 °C. For `Clc1cccc(Cl)c1` [1,3-Dichlorobenzene] the value was -24.8 °C. For `CC(C)(C)Br` [2-bromo-2-methylpropane] the value was -16 °C; for `OC(c1ccc(Cl)cc1)(c1ccc(Cl)cc1)c1ccc(Cl)cc1` [4,4',4''-trichlorotrityl alcohol], 96 °C. In the case of `CNC(=O)Oc1ccccc1OC(C)C` [propoxur], the melting point came out at 91.5 °C.

Consider `Cc1cc(C)n(C)n1` [1,3,5-trimethyl-1h-pyrazole], for which the melting point is 36 °C. In the case of `CCCCCC(=O)O` [hexanoic_acid] it was -3 °C. In the case of `OCc1ccccc1O` [2-hydroxybenzyl alcohol] it was 85 °C; in that of `CC(C)S[C@@H]1O[C@H](CO)[C@H](O)[C@H](O)[C@H]1O` [isopropyl-beta-d-thiogalactoside], 112 °C; in that of `CC(=O)c1ccc(Cl)s1` [2-acetyl-5-chlorothiophene], 46 °C.

Take `CC(C)(C)C(=O)Nc1ccccc1B(O)O` [2-(2,2,2-trimethylacetamido)benzeneboronic acid]: the melting point worked out at 270 °C.

`O=C(O)c1cc(I)cc(I)c1I` [2,3,5-triiodobenzoic acid] came in with a melting point of 221 °C. In the case of `CC/C(=C(/CC)c1ccc(O)cc1)c1ccc(O)cc1` [4,4'-(3E)-Hex-3-ene-3,4-diyldiphenol] it was 170 °C; in that of `Cc1ccc(S)c(S)c1` [3,4-toluenedithiol], 30 °C; in that of `C=CC(N)=O` [acrylamide], 84 °C.

Turning to `ClC1=C(Cl)[C@]2(Cl)C3C(Cl)C=CC3[C@@]1(Cl)C2(Cl)Cl` (stereo partly specified), the melting point came to 95.5 °C. In the case of `CC(C)(C)C1=CC(=O)C(=O)C(C(C)(C)C)=C1` [3,5-di-tert-butyl-o-benzoquinone], the melting point was determined as 115 °C.

`O=C(O)CCN1C(=O)COc2ccc(Cl)cc21` returned a melting point of 148 °C. For `CC(=O)Nc1ccc(Cl)cc1C` [4'-chloro-2'-methylacetanilide] the value was 140 °C; for `CC(C)CCOC(=O)/C=C/c1ccc(/C=C/C(=O)OCCC(C)C)c([N+](=O)[O-])c1`, 94 °C. `CN(C)CCC(O)(c1ccccc1)c1ccccc1Cl` (stereo unspecified) [chlophedianol]: the melting point was 120 °C. In the case of `CC(=O)CO` [hydroxyacetone] it was -17 °C; in that of `COC(=O)c1ccc(CO)cc1` [methyl_4-hydroxymethylbenzoate], 51 °C; in that of `CCCCCCCC(=O)O` [octanoic acid], 16.3 °C and 17 °C.

The molecule `CC(=NNC(=O)c1ccncc1)c1ccco1` [a-Methylfurfurylidenehydrazide of Isonicotinic Acid] showed a melting point of 199 °C.

Take `Cc1cc(C(=O)O)no1` [5-methylisoxazole-3-carboxylic acid]: the melting point was 172 °C. In the case of `CCCCCCCCOc1ccc(C(=O)O)cc1` [4-n-octyloxybenzoic acid] it was 103 °C; in that of `CC(=O)Oc1cccc2ccccc12` [1-naphthyl acetate], 45 °C. For `CC(C)N(C=O)C(C)C` [N,N-diisopropylformamide] the value was 10 °C. For `CC(=O)Nc1ccc([N+](=O)[O-])cn1` [2-acetamido-5-nitropyridine] the value was 200 °C. In the case of `COc1ccc(C(=O)OC(=O)c2ccc(OC)cc2)cc1` [4-methoxybenzoic anhydride], the melting point was 97 °C.

`Cc1ccc([N+](=O)[O-])c(C)c1` [2,4-Dimethyl-1-nitrobenzene] yielded a melting point of 7 °C.

`COc1ccc(C(=O)/C=C/c2ccc(-c3ccccc3[N+](=O)[O-])o2)cc1OC` yielded a melting point of 120 °C.

Consider `CCCC(=O)c1ccccc1` [butyrophenone], for which the melting point turned out to be 12 °C. For `O=C(O)/C=C/c1cccc(B(O)O)c1` [3-(2-carboxyvinyl)benzeneboronic acid] the value was 218 °C; for `NC(=O)c1ccccc1OC(F)(F)F` [2-(trifluoromethoxy)benzamide], 154 °C; for `Clc1cccc(-c2nnn[nH]2)c1` [5-(3-chlorophenyl)-1h-tetrazole], 140 °C. For `C1CCCCCCCCCCCCCC1` [cyclopentadecane], the melting point was found to be 62 °C. In the case of `CC1=C(C)C(=O)C(C(CCCCCC(=O)O)c2ccccc2)=C(C)C1=O` (stereo unspecified) [seratrodast] it was 128 °C; in that of `C=Cc1ccc(C)cc1` [1-Methyl-4-vinylbenzene], -72.5 °C. In the case of `CC(=O)OC1CCC2C3CCC4=CC(=O)CCC4(C)C3CCC12C` (stereo unspecified) [3-oxoandrost-4-en-17-yl acetate] it was 140 °C. The molecule `COc1cc(=O)oc2ccccc12` [4-methoxycoumarin] had a melting point of 124 °C.

On to `CCOP(=O)(OCC)OCC` [Triethyl phosphate], for which the melting point is -56 °C.

The molecule `Cc1cc[n+]([O-])cc1C(=O)NN` [4-methylpyridine-3-carbohydrazide 1-oxide] showed a melting point of 226 °C.

Consider `O=C/C=C/c1ccccc1` [(2E)-3-Phenylacrylaldehyde], for which the melting point was -7 °C.

`O=C(Cl)OCC1c2ccccc2-c2ccccc21` [9-fluorenylmethyl chloroformate] yielded a melting point of 62 °C. In the case of `O=C(CCCN1CCC(O)(c2ccc(Cl)cc2)CC1)c1ccc(F)cc1` [haloperidol] it was 149 °C. For `Cc1ccccc1C#N` [o-tolunitrile] the value was 13 °C; for `CCN(CC)CCNC(=O)c1cc(Cl)c(N)cc1OC` [Metoclopramide], 147 °C; for `O=C(O)c1ccccc1C(=O)O` [phthalic acid], 230 °C. For `Nc1nc2c(ncn2COCCO)c(=O)[nH]1` [acyclovir] the value was 255 °C. In the case of `NC(=O)C1c2ccccc2Oc2ccccc21` [xanthene-9-carboxamide], the melting point was 245 °C.

Molecule `CC(C)(C)c1ccc2c(c1)OCCOCCOc1cc(C(C)(C)C)ccc1OCCOCCO2` [4',4''(5'')-di-tert-butyldibenzo-18-crown-6] returned a melting point of 110 °C. For `OC1c2ccccc2Oc2ccccc21` [xanthydrol] the value was 124 °C; for `c1ccc(C2CCCCC2)cc1` [Cyclohexylbenzene], 5 °C. As for `CCCCC1C(=O)N(c2ccccc2)N(c2ccccc2)C1=O` [phenylbutazone], the melting point worked out at 107 °C. For `O=C(O)Cc1ccc(Cl)cc1` [4-chlorophenylacetic acid] the value was 106 °C.

Molecule `CCCCCc1ccc(O)cc1` [4-n-pentylphenol] displayed a melting point of 24 °C. On to `CCC(C)Cl` (stereo unspecified) [2-chlorobutane], for which the melting point was -141 °C. For `O=C(O)c1ccccc1Br` [2-Bromobenzoic acid] the value was 149 °C; for `NCC(=O)O` [glycine], 262 °C.

In the case of `Cc1ccc(S(=O)(=O)CCO)cc1` [2-(p-toluenesulfonyl)ethanol], the melting point is 52 °C. In the case of `C[C@H](CS)C(=O)N1CCC[C@H]1C(=O)O` [Captopril] it was 106 °C. In turn, `CC(CCC(=O)O)C1CCC2C3C(O)CC4CC(O)CCC4(C)C3CCC12C` (stereo unspecified) [ursodiol] showed a melting point of 203 °C. For `CCC(Br)(CC)C(=O)NC(=O)NC(C)=O` [acecarbromal] the value was 109 °C; for `CCCN1C(=O)CCC(N2C(=O)c3ccccc3C2=O)C1=O` (stereo unspecified) [N-Propylthalidomide], 136 °C. As to `O=C1C=C(NCCc2ccccn2)C(=O)c2ccccc21` [2-[(2-pyridin-2-ylethyl)amino]naphthalene-1,4-dione], the melting point came out at 129 °C. In the case of `CC1(C)C(=O)OOC1=O` [4,4-dimethyl-1,2-dioxolane-3,5-dione] it was 45 °C; in that of `Cc1cc(=O)n(-c2ccccc2)n1C` [Antipyrine], 112 °C; in that of `N#CCCC#N` [succinonitrile], 56 °C. In the case of `COc1ccc(N/N=C(\C#N)c2nc(-c3ccc(C)cc3)cs2)cc1` it was 146 °C; in that of `CCCCCCCC(C)=O` [2-nonanone], -15 °C; in that of `Cc1ccc(I)cc1` [p-iodotoluene], 43 °C.
